Measurements taken from patent publication US20230365546A1, “5-SUBSTITUTED INDOLE 3-AMIDE DERIVATIVES, PREPARATION METHOD AND USE THEREOF” (ORIGIANT PHARMACEUTICAL CO., LTD, priority 2020, published 2023).

Experiments:
Experiment in all cases: Kinase Profiler 10 μM panel
[1] = biological target: Flt3(h) (Homo sapiens (Human), UniProt P36888)
Protocol: (§1) In vitro kinase assays were conducted using Kinase Profiler services provided by Eurofins. The experimental method was as follows: the small molecule compound to be tested (0.001-10 μM), the protein kinase to be tested were incubated with a buffer containing substrate, 10 mM magnesium acetate, and [γ-^33P-ATP], the reaction was started by adding Mg\TPmix, after incubation for a period of time at room temperature, a 3% phosphate solution was added to the buffer to stop the reaction. Subsequently, 10 μL of the reaction mixture was quantitatively pipetted onto P30 filter paper, which was washed three times with 75 mM phosphate solution and then once with methanol. The P30 filter paper was air-dried and scintillation fluid was added for scintillation counting.

[2] = biological target: PI3 Kinase (p110a/p65a)(m) (Mus musculus (Mouse), UniProt P42337)
Protocol: as §1

[3] = biological target: ALK6(h) (Homo sapiens (Human), UniProt O00238)
Protocol: as §1

[4] = biological target: PI3KC2a(h) (Homo sapiens (Human), UniProt O00443)
Sequence of PI3KC2a(h) (O00443 whole entry): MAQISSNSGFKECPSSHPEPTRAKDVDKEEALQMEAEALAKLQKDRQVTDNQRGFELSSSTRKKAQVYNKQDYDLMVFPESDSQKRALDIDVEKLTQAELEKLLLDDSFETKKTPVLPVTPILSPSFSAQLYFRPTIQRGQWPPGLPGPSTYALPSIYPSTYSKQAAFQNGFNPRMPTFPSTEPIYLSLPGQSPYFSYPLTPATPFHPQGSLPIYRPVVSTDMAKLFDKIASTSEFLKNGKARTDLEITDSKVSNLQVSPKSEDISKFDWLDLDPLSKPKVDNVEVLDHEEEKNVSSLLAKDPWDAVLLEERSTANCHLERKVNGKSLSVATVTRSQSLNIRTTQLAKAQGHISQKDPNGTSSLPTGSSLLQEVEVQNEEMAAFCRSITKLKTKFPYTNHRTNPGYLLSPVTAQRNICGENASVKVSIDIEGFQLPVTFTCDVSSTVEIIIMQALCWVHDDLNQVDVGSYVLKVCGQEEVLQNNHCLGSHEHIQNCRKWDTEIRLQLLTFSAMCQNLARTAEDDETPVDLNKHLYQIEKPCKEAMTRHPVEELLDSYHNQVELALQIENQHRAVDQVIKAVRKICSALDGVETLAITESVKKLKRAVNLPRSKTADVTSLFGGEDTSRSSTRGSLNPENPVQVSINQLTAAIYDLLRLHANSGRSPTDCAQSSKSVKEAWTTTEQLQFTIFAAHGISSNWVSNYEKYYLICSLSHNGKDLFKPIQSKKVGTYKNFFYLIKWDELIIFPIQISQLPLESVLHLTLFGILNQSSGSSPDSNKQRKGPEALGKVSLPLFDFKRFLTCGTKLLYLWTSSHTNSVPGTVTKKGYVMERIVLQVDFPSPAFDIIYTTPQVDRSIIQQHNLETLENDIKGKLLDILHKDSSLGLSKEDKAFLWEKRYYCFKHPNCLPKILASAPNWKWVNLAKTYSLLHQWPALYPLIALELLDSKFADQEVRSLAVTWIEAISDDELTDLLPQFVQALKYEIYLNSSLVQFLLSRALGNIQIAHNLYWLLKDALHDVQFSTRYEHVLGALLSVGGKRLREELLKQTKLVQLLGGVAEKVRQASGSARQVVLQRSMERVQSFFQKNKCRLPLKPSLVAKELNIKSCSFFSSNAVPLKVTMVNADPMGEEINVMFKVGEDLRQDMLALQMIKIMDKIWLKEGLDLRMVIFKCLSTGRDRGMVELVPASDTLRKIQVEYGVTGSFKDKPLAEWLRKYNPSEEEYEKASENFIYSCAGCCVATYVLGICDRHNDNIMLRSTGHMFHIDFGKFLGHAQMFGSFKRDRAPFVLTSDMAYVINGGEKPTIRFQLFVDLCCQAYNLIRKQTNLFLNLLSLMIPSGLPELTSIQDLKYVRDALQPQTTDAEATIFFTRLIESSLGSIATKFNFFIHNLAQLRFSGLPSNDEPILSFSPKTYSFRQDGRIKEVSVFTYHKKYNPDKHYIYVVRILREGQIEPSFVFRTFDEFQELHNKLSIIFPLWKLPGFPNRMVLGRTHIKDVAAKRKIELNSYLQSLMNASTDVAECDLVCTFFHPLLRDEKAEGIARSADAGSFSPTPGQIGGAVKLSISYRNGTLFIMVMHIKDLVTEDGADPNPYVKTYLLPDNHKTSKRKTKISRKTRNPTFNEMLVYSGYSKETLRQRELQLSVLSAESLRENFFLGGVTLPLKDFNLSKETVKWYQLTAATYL
Protocol: as §1

[5] = biological target: AMPKα1(h) (Homo sapiens (Human), UniProt Q13131)
Protocol: as §1

[6] = biological target: GSK3α(h) (Homo sapiens (Human), UniProt P49840)
Protocol: as §1

[7] = biological target: ARK5(h) (Homo sapiens (Human), UniProt O60285)
Protocol: as §1

[8] = biological target: PKAcβ(h) (Homo sapiens (Human), UniProt P22694)
Protocol: as §1

[9] = biological target: IKKß(h) (Homo sapiens (Human), UniProt O14920)
Sequence of IKKß(h) (O14920 whole entry): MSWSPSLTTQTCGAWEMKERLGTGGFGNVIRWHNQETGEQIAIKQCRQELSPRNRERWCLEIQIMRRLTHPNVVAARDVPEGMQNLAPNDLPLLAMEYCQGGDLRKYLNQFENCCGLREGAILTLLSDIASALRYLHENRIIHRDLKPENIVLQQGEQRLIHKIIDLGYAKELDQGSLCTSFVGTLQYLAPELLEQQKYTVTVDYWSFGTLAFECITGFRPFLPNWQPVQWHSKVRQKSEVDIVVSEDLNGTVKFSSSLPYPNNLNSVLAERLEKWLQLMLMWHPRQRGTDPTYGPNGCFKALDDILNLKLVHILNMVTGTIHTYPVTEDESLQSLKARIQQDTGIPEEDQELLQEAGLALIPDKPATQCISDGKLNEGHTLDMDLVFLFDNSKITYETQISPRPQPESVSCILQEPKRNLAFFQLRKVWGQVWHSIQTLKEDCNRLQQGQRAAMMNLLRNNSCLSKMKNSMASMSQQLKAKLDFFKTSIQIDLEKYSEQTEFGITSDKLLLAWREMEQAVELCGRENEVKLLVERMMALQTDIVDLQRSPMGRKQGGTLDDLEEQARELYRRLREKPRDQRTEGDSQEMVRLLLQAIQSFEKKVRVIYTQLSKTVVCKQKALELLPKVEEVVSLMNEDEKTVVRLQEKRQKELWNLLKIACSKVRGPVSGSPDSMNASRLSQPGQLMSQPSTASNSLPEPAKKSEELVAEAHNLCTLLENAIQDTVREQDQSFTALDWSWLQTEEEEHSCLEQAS
Protocol: as §1

[10] = biological target: PKCϵ(h) (Homo sapiens (Human), UniProt Q02156)
Sequence of PKCϵ(h) (Q02156 whole entry): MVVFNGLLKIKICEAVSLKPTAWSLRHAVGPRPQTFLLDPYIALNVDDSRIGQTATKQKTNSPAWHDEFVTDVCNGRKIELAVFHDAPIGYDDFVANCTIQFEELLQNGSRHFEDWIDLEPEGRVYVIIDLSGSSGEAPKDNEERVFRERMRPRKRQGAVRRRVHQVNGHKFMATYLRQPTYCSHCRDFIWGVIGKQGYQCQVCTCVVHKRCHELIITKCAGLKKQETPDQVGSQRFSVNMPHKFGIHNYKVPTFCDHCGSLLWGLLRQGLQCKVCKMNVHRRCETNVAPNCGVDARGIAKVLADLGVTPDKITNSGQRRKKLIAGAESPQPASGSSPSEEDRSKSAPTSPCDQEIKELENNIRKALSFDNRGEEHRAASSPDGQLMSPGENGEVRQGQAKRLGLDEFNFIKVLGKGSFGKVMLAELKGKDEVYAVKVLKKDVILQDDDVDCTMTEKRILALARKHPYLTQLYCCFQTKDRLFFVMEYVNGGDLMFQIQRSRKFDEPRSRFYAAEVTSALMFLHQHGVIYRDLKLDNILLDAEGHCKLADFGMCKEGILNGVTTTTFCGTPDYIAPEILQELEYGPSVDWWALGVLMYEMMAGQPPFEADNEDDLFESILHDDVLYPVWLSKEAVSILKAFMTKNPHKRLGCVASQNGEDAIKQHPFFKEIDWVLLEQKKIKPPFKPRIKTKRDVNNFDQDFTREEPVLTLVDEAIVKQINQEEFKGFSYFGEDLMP
Protocol: as §1

[11] = biological target: IR(h) (Homo sapiens (Human), UniProt P06213)
Protocol: as §1

[12] = biological target: CaMKIδ(h) (Homo sapiens (Human), UniProt Q8IU85)
Sequence of CaMKIδ(h) (Q8IU85 whole entry): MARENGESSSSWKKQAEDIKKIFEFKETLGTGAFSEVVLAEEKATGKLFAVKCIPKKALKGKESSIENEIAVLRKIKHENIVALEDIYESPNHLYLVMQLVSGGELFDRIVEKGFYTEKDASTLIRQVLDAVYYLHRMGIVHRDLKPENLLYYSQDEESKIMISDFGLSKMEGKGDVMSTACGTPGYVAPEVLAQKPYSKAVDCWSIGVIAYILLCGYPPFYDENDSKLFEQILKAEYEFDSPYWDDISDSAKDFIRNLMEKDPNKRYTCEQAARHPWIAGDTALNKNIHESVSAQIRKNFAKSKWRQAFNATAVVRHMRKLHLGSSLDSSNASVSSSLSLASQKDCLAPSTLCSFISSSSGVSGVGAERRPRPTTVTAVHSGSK
Protocol: as §1

[13] = biological target: ROCK-I(h) (Homo sapiens (Human), UniProt Q13464)
Protocol: as §1

[14] = biological target: MAPK1(h) (Homo sapiens (Human), UniProt P27361)
Protocol: as §1

[15] = biological target: MAPK2(m) (Mus musculus (Mouse), UniProt P63085)
Protocol: as §1

[16] = biological target: MARK4(h) (Homo sapiens (Human), UniProt Q96L34)
Protocol: as §1

[17] = tested on: ChaK1(h)
Protocol: as §1

[18] = biological target: CK1γ3(h) (Homo sapiens (Human), UniProt Q9Y6M4)
Protocol: as §1

[19] = biological target: MKK3(h) (Homo sapiens (Human), UniProt P46734)
Protocol: as §1

[20] = biological target: MLK1(h) (Homo sapiens (Human), UniProt P80192)
Protocol: as §1

[21] = biological target: cKit(V654A)(h) (Homo sapiens (Human), UniProt P10721, V654A)
Protocol: as §1

[22] = biological target: CLIK1(h) (Homo sapiens (Human), UniProt Q8TDR2)
Sequence of CLIK1(h) (Q8TDR2 whole entry): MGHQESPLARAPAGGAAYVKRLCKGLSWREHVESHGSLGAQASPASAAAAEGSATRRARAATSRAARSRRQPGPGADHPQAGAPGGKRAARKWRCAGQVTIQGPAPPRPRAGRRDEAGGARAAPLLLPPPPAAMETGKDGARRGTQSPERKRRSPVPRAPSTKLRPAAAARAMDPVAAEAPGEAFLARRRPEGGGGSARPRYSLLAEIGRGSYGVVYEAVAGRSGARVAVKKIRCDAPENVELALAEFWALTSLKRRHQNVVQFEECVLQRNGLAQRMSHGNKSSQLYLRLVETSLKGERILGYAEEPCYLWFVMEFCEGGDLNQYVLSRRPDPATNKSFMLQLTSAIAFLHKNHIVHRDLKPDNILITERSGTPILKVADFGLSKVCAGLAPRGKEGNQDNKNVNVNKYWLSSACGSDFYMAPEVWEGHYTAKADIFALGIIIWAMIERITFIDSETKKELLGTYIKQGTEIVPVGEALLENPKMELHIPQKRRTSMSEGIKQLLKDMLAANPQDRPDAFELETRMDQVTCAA
Protocol: The experimental method was as follows: the small molecule compound to be tested (0.001-10 μM), the protein kinase to be tested were incubated with a buffer containing substrate, 10 mM magnesium acetate, and [γ-^33P-ATP], the reaction was started by adding Mg\TPmix, after incubation for a period of time at room temperature, a 3% phosphate solution was added to the buffer to stop the reaction. Subsequently, 10 μL of the reaction mixture was quantitatively pipetted onto P30 filter paper, which was washed three times with 75 mM phosphate solution and then once with methanol. The P30 filter paper was air-dried and scintillation fluid was added for scintillation counting.

[23] = biological target: DAPK2(h) (Homo sapiens (Human), UniProt Q9UIK4)
Protocol: as §1

[24] = biological target: DYRK2(h) (Homo sapiens (Human), UniProt Q92630)
Sequence of DYRK2(h) (Q92630 whole entry): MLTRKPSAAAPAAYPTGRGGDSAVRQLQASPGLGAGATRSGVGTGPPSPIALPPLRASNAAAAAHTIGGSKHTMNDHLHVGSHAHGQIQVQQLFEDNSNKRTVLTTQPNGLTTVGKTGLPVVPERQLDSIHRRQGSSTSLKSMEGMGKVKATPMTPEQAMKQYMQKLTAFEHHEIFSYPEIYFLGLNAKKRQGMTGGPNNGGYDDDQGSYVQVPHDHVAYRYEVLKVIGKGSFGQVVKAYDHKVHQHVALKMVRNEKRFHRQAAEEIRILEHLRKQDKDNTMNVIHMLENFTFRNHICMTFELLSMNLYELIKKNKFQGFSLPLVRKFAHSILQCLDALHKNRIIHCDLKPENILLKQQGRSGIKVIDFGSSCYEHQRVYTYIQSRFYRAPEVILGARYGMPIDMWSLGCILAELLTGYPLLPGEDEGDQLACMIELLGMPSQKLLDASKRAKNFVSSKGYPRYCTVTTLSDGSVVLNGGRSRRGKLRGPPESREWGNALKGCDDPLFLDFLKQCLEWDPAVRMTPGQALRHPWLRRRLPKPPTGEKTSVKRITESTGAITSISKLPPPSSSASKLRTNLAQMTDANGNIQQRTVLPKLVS
Protocol: as §1

[25] = biological target: NEK4(h) (Homo sapiens (Human), UniProt P51957)
Protocol: as §1

[26] = biological target: NEK6(h) (Homo sapiens (Human), UniProt Q9HC98)
Protocol: as §1

[27] = biological target: TrkB(h) (Homo sapiens (Human), UniProt Q16620)
Protocol: as §1

[28] = biological target: TSSK2(h) (Homo sapiens (Human), UniProt Q96PF2)
Sequence of TSSK2(h) (Q96PF2 whole entry): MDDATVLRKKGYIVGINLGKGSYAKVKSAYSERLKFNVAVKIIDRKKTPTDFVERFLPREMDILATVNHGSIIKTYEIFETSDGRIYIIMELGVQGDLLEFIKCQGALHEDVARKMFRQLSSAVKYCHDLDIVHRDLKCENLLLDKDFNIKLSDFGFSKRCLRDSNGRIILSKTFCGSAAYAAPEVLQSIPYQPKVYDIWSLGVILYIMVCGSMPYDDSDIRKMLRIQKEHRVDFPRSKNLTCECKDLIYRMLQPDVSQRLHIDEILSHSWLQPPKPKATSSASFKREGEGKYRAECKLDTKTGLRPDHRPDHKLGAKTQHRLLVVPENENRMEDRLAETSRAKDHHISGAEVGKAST
Protocol: as §1

[29] = biological target: EphA5(h) (Homo sapiens (Human), UniProt P54756)
Protocol: as §1

[30] = biological target: Txk(h) (Homo sapiens (Human), UniProt P42681)
Protocol: as §1

[31] = biological target: PAK6(h) (Homo sapiens (Human), UniProt Q9NQU5)
Protocol: as §1

[32] = biological target: WNK3(h) (Homo sapiens (Human), UniProt Q9BYP7)
Protocol: as §1

[33] = biological target: ZAK(h) (Homo sapiens (Human), UniProt Q9NYL2)
Protocol: as §1

[34] = biological target: ZIPK(h) (Homo sapiens (Human), UniProt O43293)
Protocol: as §1

`C[C@H](NC(=O)c1c[nH]c2ccc(-c3ccc4nc(NC(=O)C5CC5)sc4c3)cc12)c1cccc(F)c1` [Compound 34, (S)-5-(2-(cyclopropanecarboxamido)benzo[d]thiazol-6-yl)-N-(1-(3-fluorophenyl)ethyl)-1H-indole-3-carboxamide] showed an Inhibition ratio [1] of 79%, an Inhibition ratio [2] of 30% and an Inhibition ratio [3] of −4%. For the same compound, the Inhibition ratio [4] was 16%, the Inhibition ratio [5] was 4% and the Inhibition ratio [6] was 10%. It also gave an Inhibition ratio [7] of 43%, an Inhibition ratio [8] of −4% and an Inhibition ratio ([9]; IKKß(h)) of 12%. It also gave an Inhibition ratio [10] of −8%, an Inhibition ratio [11] of 36% and an Inhibition ratio [12] of 22%. For the same compound, the Inhibition ratio [13] was 15%, the Inhibition ratio [14] was 25% and the Inhibition ratio [15] was 12%. For the same compound, the Inhibition ratio [16] was 3%, the Inhibition ratio [17] was 5% and the Inhibition ratio [18] was −15%. The Inhibition ratio [19] was 35%, the Inhibition ratio [20] was 98% and the Inhibition ratio [21] was −1%. For the same compound, the Inhibition ratio [22] was 22%, the Inhibition ratio [23] was 13% and the Inhibition ratio [24] was 5%. The Inhibition ratio [25] was 30%, the Inhibition ratio [26] was 4% and the Inhibition ratio [27] was 100%. For the same compound, the Inhibition ratio [28] was −6%, the Inhibition ratio [29] was 40% and the Inhibition ratio [30] was 47%. For the same compound, the Inhibition ratio [31] was −14%, the Inhibition ratio [32] was 18% and the Inhibition ratio [33] was 67%. The Inhibition ratio [34] was −4%.

`C[C@H](NC(=O)c1cn(C)c2ccc(-c3ccn4nc(NC(=O)C5CC5)nc4c3)cc12)c1cccc(F)c1` [Compound 94, (S)-5-(2-(cyclopropanecarboxamido)-[1,2,4]triazolo[1,5-a]pyridin-7-yl)-N-(1-(3-fluorophenyl)ethyl)-1-methyl-1H-indole-3-carboxamide] was tested, and the Inhibition ratio/% [1] was 27%, the Inhibition ratio/% [2] was 10% and the Inhibition ratio/% [3] was −5%. It also gave an Inhibition ratio/% [4] of 40%, an Inhibition ratio/% [5] of 57% and an Inhibition ratio/% [6] of 48%. For the same compound, the Inhibition ratio/% [7] was 8%, the Inhibition ratio/% [8] was 40% and the Inhibition ratio/% ([9]; IKKβ(h)) was −3%. For the same compound, the Inhibition ratio/% [10] was 35%, the Inhibition ratio/% [11] was 27% and the Inhibition ratio/% [12] was 26%. For the same compound, the Inhibition ratio/% [13] was −10%, the Inhibition ratio/% [14] was 33% and the Inhibition ratio/% [15] was 33%. The Inhibition ratio/% [16] was 38%, the Inhibition ratio/% [17] was 66% and the Inhibition ratio/% [18] was −10%. For the same compound, the Inhibition ratio/% [19] was 38%, the Inhibition ratio/% [20] was 94% and the Inhibition ratio/% [21] was 68%. The Inhibition ratio/% [22] was 22%, the Inhibition ratio/% [23] was 3% and the Inhibition ratio/% [24] was 2%. For the same compound, the Inhibition ratio/% [25] was 27%, the Inhibition ratio/% [26] was 23% and the Inhibition ratio/% [27] was 0%. For the same compound, the Inhibition ratio/% [28] was 52%, the Inhibition ratio/% [29] was 4% and the Inhibition ratio/% [30] was −12%. It also gave an Inhibition ratio/% [31] of 49%, an Inhibition ratio/% [32] of −20% and an Inhibition ratio/% [33] of 59%. For the same compound, the Inhibition ratio/% [34] was 6%.
